Data taken from US8748347B2 (priority 2009, dated 2014).

Key:
Ramularia collo-cygni = assay: Preventive action on winter barley against Ramularia collo-cygni, field trial (Example 2); assay type: in vivo; details: barley variety Malwinta, natural infection, application at BBCH 49, evaluated 12 days after application, 0 = as untreated, 100 = not infected, UV Filter A 500 g ai/ha, Actives A & B 240 & 297 g ai/ha
Experimental: As active substance a mixture of active substances was used called “Actives A & B”, which was prepared by mixing Active A and Active B. Active A was a fungicidal suspension concentrate comprising 6 wt % epoxiconazol, 20.8 wt % boscalid, 11.2-12.6 wt % fatty alcohol alkoxylate, C8-alkyl glucoside, and phenolsulfonic acid-formaldehyde-polycondensate sodium salt (commercially available pesticide formulation from BASF SE as Champion®). Active B a fungicidal suspoemulsion comprising 20.6 wt % fenpropimorph, 11 wt % pyraclostrobin, 4.1 wt % epoxiconazol, 20.5 wt % solvent naphtha, 11 wt % fatty alcohol ethoxylate and 4.8 wt % phenolsulfonic acid-formaldehyde-polycondensate sodium salt (commercially available pesticide formulation from BASF SE as Diamant®). UV Filter A was prepared as described in example 1.
The biological trial was conducted under field conditions. The barley variety Malwinta was planted and grown under standard conditions with adequate supply of water and nutrients. […] The disease incidences were evaluated 12 days after application.
The diseases were converted into efficacies. […] The expected efficacies of active compound mixtures were determined using Colby's formula [R. S. Colby, “Calculating synergistic and antagonistic responses of herbicide combinations”, Weeds 15, 20-22 (1967)] and compared with the observed efficacies.

Phytophthora infestans = assay type: cell-based; details: YPBG medium, 125 ppm, 18° C., seven days
Septoria tritici = assay: Fungicidal action on pathogens, growth in medium analyzed at 405 nm (Example 3); assay type: cell-based; details: 2% malt medium, 125 ppm, 18° C., seven days
Experimental: Various pathogens were tested under respective test mediums and concentrations of UV filters (see Table 2). The pathogens were incubated at a temperature of 18° C. for seven days. The growth of the pathogens was compared to an untreated sample. Table 2 lists the growth compared to the untreated sample, which corresponds to 100%. The growth was analyzed at 405 nm.

COCCOCCOCCOCCOCCOCCOCCOC(=O)C(C#N)=C(c1ccccc1)c1ccccc1 [UV Filter A, 2-Cyano-3,3-diphenyl-acrylsäure-[Pluriol A350E]-ester]
Efficacy (Ramularia collo-cygni): 0
Growth (%) relative to untreated sample (Phytophthora infestans): 78%
Growth (%) relative to untreated sample (Septoria tritici): 40%
